The values below come from patent publication US10954252B1, “Inhibitors of human immunodeficiency virus replication” (ViiV HEALTHCARE UK (NO.5) LIMITED, priority 2017, dated 2021).

The subject of series [1] is recombinant NL4-3 virus (nef section replaced with Renilla luciferase gene) in MT-2 cells. As to the kind of experiment: HIV cell culture assay (antiviral activity, luciferase readout). As to conditions: MT-2 cells infected for 4-5 days with recombinant NL4-3 luciferase virus. It counts as cell-based. In outline:
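Serially diluted compounds were present throughout a 4-5 day infection of MT-2 cells by recombinant NL4-3 whose nef region partly encodes Renilla luciferase. Antiviral activity was taken from live-cell luciferase signal, with the 50% effective concentration fitted by the exponential median effect equation.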

The nature of series [2]: Compound cytotoxicity, XTT-based colorimetric assay. It is filed as cell-based. The following applies: human, uninfected MT2 cells, Table 1a, day 4, XTT. In outline:
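XTT colorimetric read-out on day 4 gave CC50 values, using MT2 cells left uninfected but otherwise handled as in the antiviral assay.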

As a reminder, the EC50 is the concentration at which the effect is half-maximal. As usually defined, the CC50 is the concentration giving 50% cytotoxicity. Low readings indicate greater toxicity to the cells, high ones lower toxicity to the cells. Turning to `CS(=O)(=O)Nc1nn(CC(F)F)c2c(-n3c([C@H](Cc4cc(F)cc(F)c4)NC(=O)Cn4nc(C(F)F)c5c4C(F)(F)[C@@H]4C[C@H]54)nc4ncccc4c3=O)ccc(Cl)c12` (single isomer, unassigned) [Example 44.1], the EC50 in series [1] (Renilla, NL43, Table 1a) stood at 0.049 nM. For the same compound, in series [2], the half-maximal cytotoxic concentration (CC50) at 4 days is over 10000 nM.
The like results for `Cn1nc(NS(C)(=O)=O)c2c(Cl)ccc(-n3c([C@H](Cc4cc(F)cc(F)c4)NC(=O)Cn4nc(C(F)F)c5c4CCC5)nc4ncccc4c3=O)c21` (single isomer, unassigned) [Example 46.1] were, in that order, 10.3 nM and over 1000 nM.
Take `Cc1ccn(CC(=O)N[C@@H](Cc2cc(F)cc(F)c2)c2nc3ncccc3c(=O)n2-c2ccc(Cl)c3c(NS(C)(=O)=O)nn(C)c23)n1` (single isomer, unassigned) [Example 47.1]: in series [1] (Table 1a), the EC50 came out at 227 nM. This compound registered a CC50 at 4 days in series [2] of over 1000 nM.
With `Cn1nc(NS(C)(=O)=O)c2c(Cl)ccc(-n3c([C@H](Cc4cc(F)cc(F)c4)NC(=O)Cn4nc5c(c4C(F)F)CCC5)nc4ncccc4c3=O)c21` (single isomer, unassigned) [Example 48.2], the EC50 in series [1] (Renilla, NL43, Table 1a) was 0.16 nM. Moreover, the half-maximal cytotoxic concentration (CC50) at 4 days in series [2] is over 1000 nM.
With `Cn1nc(NS(C)(=O)=O)c2c(Cl)ccc(-n3c([C@H](Cc4cc(F)cc(F)c4)NC(=O)Cc4n[nH]c5ccc(O)cc45)nc4ncccc4c3=O)c21` (single isomer, unassigned) [Example 49.1], the EC50 in series [1] (Renilla, NL43, Table 1a) was 93 nM. For the same compound, in series [2], the CC50 at 4 days is over 1000 nM.
With `Cn1nc(NS(C)(=O)=O)c2c(Cl)ccc(-n3c([C@H](Cc4cc(F)cc(F)c4)NC(=O)Cn4ccc(N)n4)nc4ncccc4c3=O)c21` (single isomer, unassigned) [Example 50.2], the concentration for a half-maximal effect (EC50) in series [1] (Renilla, NL43, Table 1a) was determined as 32.1 nM. Further, the CC50 at 4 days in series [2] is over 1000 nM.
The corresponding values for `COc1ccc2c(=O)n(-c3ccc(Cl)c4c(NS(C)(=O)=O)nn(CC(F)F)c34)c(C(Cc3cc(F)cc(F)c3)NC(=O)Cn3nc(C(F)F)c4c3C(F)(F)[C@@H]3C[C@H]43)nc2n1` (single isomer, unassigned) [Example 54.1] are 43.4 nM and over 1000 nM.
The corresponding values for `COc1ccc2c(=O)n(-c3ccc(Cl)c4c(NS(=O)(=O)C5CC5)nn(CC(F)F)c34)c([C@H](Cc3cc(F)cc(F)c3)NC(=O)Cn3ccc(C4CC4)n3)nc2n1` (single isomer, unassigned) [Example 57.2] are 0.33 nM and over 1000 nM.
The corresponding values for `CCOc1ccc2c(=O)n(-c3ccc(Cl)c4c(NS(C)(=O)=O)nn(C)c34)c([C@H](Cc3cc(F)cc(F)c3)NC(=O)Cn3ccc(C4CC4)n3)nc2n1` (single isomer, unassigned) [Example 59.1] are 47 nM and over 1000 nM.
In the case of `CN(c1nn(C)c2c(-c3cc4c(ccn4C)nc3[C@H](Cc3cc(F)cc(F)c3)NC(=O)Cn3nc(C(F)F)c4c3C(F)(F)[C@@H]3C[C@H]43)ccc(Cl)c12)S(C)(=O)=O` (single isomer, unassigned) [Example 64], in series [1] (Renilla, NL43, Table 1a), the EC50 is 4 nM. Also, the 50% cytotoxic concentration (CC50) at 4 days in series [2] was over 10000 nM.
Turning to `Cc1ccc(C)c2c(=O)n(-c3ccc(Cl)c4c(NS(C)(=O)=O)nn(C)c34)c([C@H](Cc3cc(F)cc(F)c3)NC(=O)Cn3nc(C(F)F)c4c3C(F)(F)[C@@H]3C[C@H]43)nc12` (single isomer, unassigned) [Example 68], in series [1] (Renilla, NL43, Table 1a), the EC50 came to 4.69 nM. In series [2], the cytotoxic concentration (CC50) at 4 days was over 1000 nM.
The like results for `Cn1nc(NS(C)(=O)=O)c2cccc(-n3c(C(Cc4cc(F)cc(F)c4)NC(=O)Cn4nc(C(F)F)c5c4C(F)(F)[C@@H]4C[C@H]54)nc4ccccc4c3=O)c21` (single isomer, unassigned) [Example 69] were, in that order, 78.3 nM and over 1000 nM.
On to `Cn1nc(NS(C)(=O)=O)c2c(Cl)ccc(-n3c([C@H](Cc4cc(F)cc(F)c4)NC(=O)Cn4nc(C(F)F)c5c4C(F)(F)[C@@H]4C[C@H]54)nc4c(F)cccc4c3=O)c21` (single isomer, unassigned) [Example 71], for which the concentration for a half-maximal effect (EC50) in series [1] (Renilla, NL43, Table 1a) worked out at 9.58 nM. Besides, the CC50 at 4 days in series [2] was over 1000 nM.
The like results for `Cn1nc(NS(C)(=O)=O)c2c(Cl)ccc(-n3c([C@H](Cc4cc(F)cc(F)c4)NC(=O)Cn4nc(C(F)F)c5c4C(F)(F)[C@@H]4C[C@H]54)nc4c(F)cc(F)cc4c3=O)c21` (single isomer, unassigned) [Example 74] were, in that order, 0.0513 nM and over 1000 nM.
For the compound `COc1ccc2c(=O)n(-c3ccc(Cl)c4c(NS(C)(=O)=O)nn(C)c34)c([C@H](Cc3cc(F)cc(F)c3)NC(=O)Cn3nc(C(F)F)c4c3C(F)(F)[C@@H]3C[C@H]43)nc2c1F` (single isomer, unassigned) [Example 76], the concentration giving a half-maximal response (EC50) in series [1] (Renilla, NL43, Table 1a) came to 0.118 nM. The compound further gave a 50% cytotoxic concentration (CC50) at 4 days in series [2] of over 1000 nM.
The like results for `COc1ccc2c(=O)n(-c3ccc(Cl)c4c(NS(C)(=O)=O)nn(C)c34)c([C@H](Cc3cc(F)cc(F)c3)NC(=O)Cn3ccc(C4CC4)n3)nc2c1` (single isomer, unassigned) [Example 78] were, in that order, 0.478 nM and over 1000 nM.
The corresponding values for `COc1ccc2c(=O)n(-c3cccc4c(NS(C)(=O)=O)nn(C)c34)c([C@H](Cc3cc(F)cc(F)c3)NC(=O)Cn3nc(C(F)F)c4c3C(F)(F)[C@@H]3C[C@H]43)nc2c1` (single isomer, unassigned) [Example 80] are 0.389 nM and over 1000 nM.
Take `Cn1nc(NS(C)(=O)=O)c2c(Cl)ccc(-c3cc4cc[nH]c4nc3C(Cc3cc(F)cc(F)c3)NC(=O)Cn3nc(C(F)F)c4c3C(F)(F)[C@@H]3C[C@H]43)c21` (single isomer, unassigned) [Example 83]: the EC50 in series [1] (Table 1a) was 1.02 nM. Further, in series [2], the CC50 at 4 days is over 10000 nM.
As to `Cn1nc(NS(C)(=O)=O)c2c(Cl)ccc(-c3cc4cc[nH]c4nc3[C@H](Cc3cc(F)cc(F)c3)NC(=O)Cn3nc(C(F)F)c4c3C(F)(F)[C@@H]3C[C@H]43)c21` (single isomer, unassigned) [Example 84], the EC50 in series [1] (Renilla, NL43, Table 1a) turned out to be 0.94 nM. In series [2], this compound showed a CC50 at 4 days of over 10000 nM.
The like results for `Cn1nc(NS(C)(=O)=O)c2c(Cl)ccc(-c3cc4cc[nH]c4nc3[C@@H](Cc3cc(F)cc(F)c3)NC(=O)Cn3nc(C(F)F)c4c3C(F)(F)[C@@H]3C[C@H]43)c21` (single isomer, unassigned) [Example 87] were, in that order, 72.4 nM and over 10000 nM.
`Cn1nc(NS(C)(=O)=O)c2c(Cl)ccc(-c3cc4[nH]cc(Cl)c4nc3[C@H](Cc3cc(F)cc(F)c3)NC(=O)Cn3nc(C(F)F)c4c3C(F)(F)[C@@H]3C[C@H]43)c21` (single isomer, unassigned) [Example 89]: the concentration for a half-maximal effect (EC50) in series [1] (Renilla, NL43, Table 1a) stood at 0.66 nM. This compound also came in with a half-maximal cytotoxic concentration (CC50) at 4 days in series [2] of over 10000 nM.
On to `CS(=O)(=O)Nc1nn(CC(F)F)c2c(-c3cc4[nH]ncc4nc3[C@H](Cc3cc(F)cc(F)c3)NC(=O)Cn3nc(C(F)F)c4c3C(F)(F)[C@@H]3C[C@H]43)ccc(Cl)c12` (single isomer, unassigned) [Example 92], for which the 50% effective concentration (EC50) in series [1] (Renilla, NL43, Table 1a) stood at 0.161 nM. The compound also returned a CC50 at 4 days in series [2] of over 10000 nM.
The like results for `CS(=O)(=O)Nc1nn(CC(F)(F)F)c2c(-c3cc4[nH]ncc4nc3[C@H](Cc3cc(F)cc(F)c3)NC(=O)Cn3nc(C(F)F)c4c3C(F)(F)[C@@H]3C[C@H]43)ccc(Cl)c12` (single isomer, unassigned) [Example 94] were, in that order, 0.146 nM and over 1000 nM.
As for `Cc1cccc2c(=O)n(-c3ccc(Cl)c4c(NS(C)(=O)=O)nn(C)c34)c([C@H](Cc3cc(F)cc(F)c3)NC(=O)Cn3nc(C(F)F)c4c3C(F)(F)[C@@H]3C[C@H]43)nc12` (single isomer, unassigned) [Example 97], the EC50 in series [1] (Table 1a) amounted to 30.6 nM. The 50% cytotoxic concentration (CC50) at 4 days in series [2] is over 1000 nM.
In the case of `Cn1nc(NS(C)(=O)=O)c2c(Cl)ccc(-n3c([C@H](Cc4cc(F)cc(F)c4)NC(=O)Cn4nc(C(F)F)c5c4CCC5)nc4c(F)cc(F)cc4c3=O)c21` (single isomer, unassigned) [Example 99], in series [1] (Table 1a), the EC50 was found to be 17.8 nM. The CC50 at 4 days in series [2] is over 1000 nM.
As to `Cn1nc(NS(C)(=O)=O)c2c(Cl)ccc(-n3c([C@H](Cc4cc(F)cc(F)c4)NC(=O)Cn4nc(C(F)F)c5c4C(F)(F)[C@@H]4C[C@H]54)nc4c(Cl)cccc4c3=O)c21` (single isomer, unassigned) [Example 101], in series [1] (Table 1a), the EC50 turned out to be 335 nM. Further, in series [2], the cytotoxic concentration (CC50) at 4 days was over 1000 nM.
`Cn1nc(NS(C)(=O)=O)c2c(Cl)ccc(-n3c([C@H](Cc4cc(F)cc(F)c4)NC(=O)Cn4nc(C(F)F)c5c4C(F)(F)[C@@H]4C[C@H]54)nc4c(C(N)=O)cccc4c3=O)c21` (single isomer, unassigned) [Example 106]: the EC50 in series [1] (Renilla, NL43, Table 1a) was found to be 23.8 nM. This compound also registered a CC50 at 4 days in series [2] of over 1000 nM.
As for `Cc1c(F)ccc2c(=O)n(-c3ccc(Cl)c4c(NS(C)(=O)=O)nn(C)c34)c([C@H](Cc3cc(F)cc(F)c3)NC(=O)Cn3nc(C(F)F)c4c3C(F)(F)[C@@H]3C[C@H]43)nc12` (single isomer, unassigned) [Example 107], the EC50 in series [1] (Table 1a) was 27.3 nM. In series [2], this compound registered a CC50 at 4 days of over 1000 nM.
On to `COc1c(F)ccc2c(=O)n(-c3ccc(Cl)c4c(NS(C)(=O)=O)nn(C)c34)c([C@H](Cc3cc(F)cc(F)c3)NC(=O)Cn3nc(C(F)F)c4c3C(F)(F)[C@@H]3C[C@H]43)nc12` (single isomer, unassigned) [Example 109], for which the EC50 in series [1] (Table 1a) is 118 nM. This compound also yielded a cytotoxic concentration (CC50) at 4 days in series [2] of over 1000 nM.
Regarding `COc1c(F)ccc2c(=O)n(-c3ccc(Cl)c4c(NS(C)(=O)=O)nn(C)c34)c([C@H](Cc3cc(F)cc(F)c3)NC(=O)Cn3ccc(C4CC4)n3)nc12` (single isomer, unassigned) [Example 111], the EC50 in series [1] (Table 1a) was found to be 92.6 nM. For the same compound, the CC50 at 4 days in series [2] is over 1000 nM.
